The text below walks through data of US20250144125A1 (priority 2021, published 2025).

“And” between values parts separate entries of the source, which are not always exact repeats. Equal values may be shown once. “Also recorded” adds a separate entry of the source. Read-outs that look alike come from different tables or passages of the source.

The test system of series [1] is enterovirus-71 (Tainan/4643/98 strain). In words: Secondary assay (virus yield reduction / neutral red CPE) against enterovirus-71 in Vero 76 cells. The class given is cell-based.
Series [2] deals with measles virus (CC strain). In words: microbe, parasite or virus in culture. Type of series: cell-based.
Series [3] relates to MERS-CoV (EMC strain). In words: microbe, parasite or virus in culture. The class given is cell-based.
For series [4], the system named is HG23 Nov replicon cells. The series is described as follows: Cytotoxicity in the human norovirus replicon assay (HG23 cells). To be noted: read-out: CC50 human norovirus assay. (In general: A replicon is a self-replicating genome or part of one, used to study replication in cells.)
The test system of series [5] is Vero cells.
Series [6] deals with human norovirus genogroup I NoV (Norwalk virus replicon) in HG23 cells. In words: Human norovirus antiviral assay, qRT PCR in HG23 NoV replicon cells. The class given is cell-based. To be noted: for EC50: HG23 Nov replicon cells, qRT PCR intracellular RNA, read-out: EC50 human norovirus.
Series [7] has as its system Vero 76 cells.
Series [8] relates to enterovirus-71 (Tainan/4643/98 strain). In words: organism not typed. The class given is cell-based.
Series [9] relates to yellow fever virus (YFV 17D strain). The series is described as follows: microbe, parasite or virus in culture. The class given is cell-based.
For series [10], the system named is chikungunya virus (S27 strain). In words: microbe, parasite or virus in culture. Type of series: cell-based.
The test system of series [11] is influenza A (H1N1) virus (California/07/2009 strain). In words: microbe, parasite or virus in culture. Type of series: cell-based.
In series [12] the test system is tacaribe virus (TRVL11573 strain). In words: microbe, parasite or virus in culture. To be noted: read-out: Tacaribe virus EC50 TRVL 11573 strain. The class given is cell-based.
In series [13] the test system is Huh7 cells.
Series [14] has as its system HCV. To be noted: literature; read-out: EC50 against HCV (RNA replication); cited from earlier work.
A short description of series [15]: in vitro. To be noted: dog, CC50 MDCK.
A short description of series [16]: in vitro. To be noted: African green monkey, Tacaribe virus CC50 Vero.
The nature of series [17]: Cytotoxicity in the human norovirus replicon assay (HG23 cells). To be noted: human, HG23 Nov replicon cells.
Series [18] relates to dengue virus 2 (New Guinea C strain). The series is described as follows: microbe, parasite or virus in culture. The class given is cell-based.
A short description of series [19]: in vitro. To be noted: African green monkey.
Series [20] is described as follows: in vitro. To be noted: human.
The test system of series [21] is MDCK cells.
For series [22], the system named is Influenza A (H3N2). In words: microbe, parasite or virus in culture. Type of series: cell-based. To be noted: H3N2, MDCK, read-out: EC50 Influenza A (H3N2).
In series [23] the test system is Influenza A (H5N1). The series is described as follows: microbe, parasite or virus in culture. The class given is cell-based. To be noted: H5N1, MDCK, read-out: EC50 Influenza A (H5N1).
Series [24] relates to Influenza B. In words: microbe, parasite or virus in culture. The class given is cell-based. To be noted: MDCK, read-out: EC50 Influenza B.
The subject of series [25] is tacaribe virus (TRVL11573 strain). The class given is cell-based.
The mark [26] stands for this setting: read-out: Measles EC50 CC strain.
Where [27] appears, read: read-out: MERS-CoV CC50 Vero 76, Neutral Red, MERS-CoV screen.
Where [28] appears, read: read-out: MERS-CoV CC50 Vero 76, Visual, MERS-CoV screen.
Setting [29] is: read-out: Yellow fever virus EC50 YFV 17D strain.
Where [30] appears, read: read-out: EC50 chikungunya virus.
Setting [31] is: read-out: EC50 California/07/2009 strain.
Where [32] appears, read: read-out: Yellow fever virus CC50 Huh7, Neutral Red, YFV screen.
Where [33] appears, read: read-out: Yellow fever virus CC50 Huh7, Visual, YFV screen.
The mark [34] stands for this setting: Measles morbillivirus, Vero 76, read-out: Measles EC50 CC strain.
Where [35] appears, read: Dengue virus, Huh-7, read-out: EC50 dengue virus 2.
Setting [36] is: Vero 76, read-out: EC50 enterovirus-71.
Where [37] appears, read: Influenza A virus, H1N1, MDCK, read-out: EC50 California/07/2009 strain.
Where [38] appears, read: Mammarenavirus tacaribeense, Vero.
Where [39] appears, read: Middle East respiratory syndrome-related coronavirus, Vero 76, read-out: MERS-CoV EC50 EMC strain.
Setting [40] is: read-out: MERS-CoV EC50 EMC strain.

As a reminder, the EC90 is the concentration at which the effect reaches the 90% level. For `OC[C@H]1O[C@@H](n2ccc3c(C#CC4CCCC4)ncnc32)[C@H](O)[C@@H]1O` [3.1g, 6-(Cydopentylethynyl)-9-β-D-ribofuranosyl-7-deazapurine], the EC50 in series [1] (Neutral Red (Cytopathic effect/Toxicity)) is 3.8 µM; in series [2] (setting [26]), 3.3 µM and 2.8 µM; in [6], 0.438 µM; in [8] (read-out: EC50 enterovirus-71), 1.5 µM; in series [9] (setting [29]), 0.86 µM and 1.3 µM; in series [10] (setting [30]) it was > 100 µM. Besides, the EC50 in [11] (setting [31]) was > 8.4 µM; in [12] it was 0.37 µM. It took 1.1 µM to reach the 90% level in [1] (Visual (Virus yield reduction)) (EC90). The “activity against MERS-CoV in words” value in [3] is “moderately active with low selectivity index”. Further, the CC50 in series [4] was determined as 25.8 µM; in series [5], 34 µM; in series [7] (setting [27]), 49 µM; in [7] (setting [28]) it was 100 µM; in series [13] (setting [32]), 6 µM; in series [13] (setting [33]) it was 8.6 µM.
As to `C[C@@]1(O)[C@H](O)[C@@H](CO)O[C@H]1n1ccc2c(N)ncnc21` [7-Deaza-2′-C-methyladenosine], the EC50 in series [14] is 0.25 µM.
Take `C[C@@]1(O)[C@H](O)[C@@H](CO)O[C@H]1n1cc(F)c2c(N)ncnc21` [7-fluoro-7-deaza-2′-C-methyladenosine]: in [14], the EC50 is 0.07 µM.
In the case of `CCCC#Cc1ncnc2c1ccn2[C@@H]1O[C@H](CO)[C@@H](O)[C@H]1O` [3.1f, 6-(Pent-1-yn-1-yl)-9-β-D-ribofuranosyl-7-deazapurine], the CC50 in series [15] was 9.1 µM; in [16], 10 µM; in series [5] (African green monkey) it was 9.9 µM; in series [7] (setting [27]), 110 µM; in series [7] (setting [28]), 19 µM; in series [19] (CC50), > 100 µM. In addition, the CC50 in [19] (Measles CC50 Vero 76) came out at 63 µM; in [20] (CC50) it was 12 µM; in series [20] (Yellow fever virus CC50 Huh7), 28 µM; in [13] (human), 11 µM; in [13] (setting [32]), 31 µM; in series [21] (dog), 5.1 µM. In addition, the EC50 was 29 µM in [1] (Vero 76, Neutral Red (Cytopathic effect/Toxicity)); 3.2 µM in series [2] (setting [34]); 3.7 µM in series [2] (setting [26]); 0.75 µM in series [18] (setting [35]); 0.96 µM in series [18] (read-out: EC50 dengue virus 2); 0.002 µM in series [6] (Norwalk virus). Also, the EC50 stood at 2.2 µM in series [8] (setting [36]); 1.6 µM in series [8] (read-out: EC50 enterovirus-71); 2.2 µM in series [11] (setting [37]); 2.3 µM in [11] (setting [31]); 1.6 µM in [12] (setting [38]); 1.8 µM in [12]. The same compound yielded an EC90 in series [1] (Vero 76, Visual (Virus yield reduction)) of 17 µM. In addition, the CC50 at 3 days in series [17] is 38.7 µM. The “activity against human norovirus in words” value in [6] was “low nanomolar activity and high selectivity”.
Regarding `CCc1ncnc2c1c(F)cn2[C@@H]1O[C@H](CO)[C@@H](O)[C@H]1O` [3.1r, 6-Ethyl-7-Fluoro-9-β-D-ribofuranosyl-7-deazapurine], the CC50 in series [15] came out at 32 µM; in [16] it was 63 µM; in [5] (African green monkey) it was 59 µM; in series [7] (African green monkey) it was 42 µM; in [7] (setting [27]), 46 µM; in [7] (setting [28]), 100 µM. Further, the CC50 is > 100 µM in series [19] (CC50); 32 µM in [19] (Measles CC50 Vero 76); 1.9 µM in series [13] (setting [32]); > 100 µM in [13] (setting [33]); 43 µM in [21] (dog). Also, the EC50 in series [2] (setting [34]) was 7.7 µM; in [2] (setting [26]), 9.6 µM; in series [3] (setting [39]), 3 µM; in series [3] (setting [40]) it was 2.5 µM; in [22] it was < 0.1 µM; in [8] (setting [36]), > 100 µM. For the same compound, the EC50 in [11] (setting [37]) was 0.34 µM; in series [11] (Influenza A virus, H1N1, MDCK, read-out: EC50 Influenza A (H1N1)), 0.34 µM; in series [11] (setting [31]), 0.32 µM; in [23] it was < 0.1 µM; in [12] (setting [38]), > 63 µM; in [12], 43 µM. Also, the EC50 in series [24] was < 0.1 µM. Also, in series [3], the “activity against MERS-CoV in words” value was “moderately active with low selectivity index; also recorded: low micromolar to submicromolar activity”. In series [18], the “activity against dengue virus 2 in words” value was “low micromolar to submicromolar activity”.
`OC[C@H]1O[C@@H](n2ccc3c(C#Cc4ccc(Cl)cc4)ncnc32)[C@H](O)[C@@H]1O` [3.1j, 6-((4-Chlorophenyl)ethynyl)-9-β-D-ribofuranosyl-7-deazapurine]: the CC50 turned out to be 2.4 µM in [15]; 8.6 µM in series [16]; 6.5 µM in [5] (African green monkey); 32 µM in series [19] (MERS-CoV CC50 Vero 76); 12 µM in series [19] (Measles CC50 Vero 76); 12 µM in series [20] (CC50). Moreover, the CC50 in series [13] (human) worked out at 13 µM; in [13] (setting [32]), 5 µM; in [13] (setting [33]), 28 µM; in [21] (dog), 3.2 µM. The EC50 in [2] (setting [34]) is 3.2 µM; in series [2] (setting [26]), 3.3 µM; in series [3] (setting [39]), > 32 µM; in series [18] (setting [35]), 1.1 µM; in series [18] (read-out: EC50 dengue virus 2) it was 1 µM; in [6] (Norwalk virus), 0.022 µM. The EC50 is > 32 µM in series [8] (setting [36]); > 31 µM in [8] (read-out: EC50 enterovirus-71); 1.2 µM in [9] (Yellow fever virus, Huh-7, read-out: Yellow fever virus EC50 YFV 17D strain); 0.8 µM in series [9] (setting [29]); > 32 µM in series [10] (Chikungunya virus, Vero 76, read-out: EC50 chikungunya virus); > 23 µM in series [10] (setting [30]). Besides, the EC50 in series [11] (setting [37]) was > 2.4 µM; in series [11] (setting [31]), > 3.2 µM; in series [12] (setting [38]), > 8.6 µM; in [12], > 6.5 µM. In addition, in [17], the CC50 at 3 days was 38.6 µM.
Consider `OC[C@H]1O[C@@H](n2ccc3c(C#CC4CC4)ncnc32)[C@H](O)[C@@H]1O` [3.1c, 6-Cydopropylethynyl-9-β-D-ribofuranosyl-7-deazapurine], for which the EC50 in series [25] was 1.1 µM; in series [2] (setting [26]), 0.97 µM and 1 µM; in series [3] (setting [40]), 10 µM and 6.7 µM; in [6], 0.13 µM and 0.126 µM; in [8] (read-out: EC50 enterovirus-71), > 100 µM; in [9] (setting [29]) it was 0.86 µM and 1.8 µM. For the same compound, the EC50 was > 100 µM in [10] (setting [30]); 11 µM and 8.2 µM in series [11] (setting [31]); 0.68 µM in series [12]. For the same compound, in series [25], it took 0.65 µM to reach the 90% level (EC90). Further, the “activity against MERS-CoV in words” value in [3] is given as “moderately active with low selectivity index”. Moreover, the CC50 was 17.5 µM in [4]; > 100 µM in series [7]; > 100 µM in series [7] (setting [27]); 100 µM in series [7] (setting [28]); 60 µM in series [13] (setting [32]); 32 µM in [13] (setting [33]). Also, the CC50 in series [21] was > 100 µM. For the same compound, the “activity against enterovirus-71 in words” value in series [8] was “inactive”. The “activity against influenza A (H1N1) in words” value in [11] was “moderate activity”.
